# Key:
# [1] = tested on: Trichophyton mentagrophytes; test: Antifungal activity against Trichophyton mentagrophytes assessed as growth inhibition at […] to […] ug/ml after 3 to 4 days by agar well diffusion method; format: functional
# [2] = tested on: Mycolicibacterium smegmatis; test: Antitubercular activity against Mycobacterium smegmatis ATCC 19420 assessed as growth inhibition at 0.3125 to 5 ug/mL after 7 days by resazurin reduction test; format: functional; conditions: ATCC 19420, 168 h
# Escherichia coli [3] = test: Antibacterial activity against Escherichia coli […] assessed as growth inhibition after 16 to 18 hr by serial plate dilution method; format: functional
# [4] = tested on: Mycolicibacterium fortuitum; test: Antitubercular activity against Mycobacterium fortuitum ATCC 19542 assessed as growth inhibition at 1 to 100 ug/mL after 7 days by resazurin reduction test; format: functional; conditions: ATCC 19542, 168 h
# Staphylococcus aureus [5] = test: Antibacterial activity against Staphylococcus aureus ATCC 25923 assessed as growth inhibition after 16 to 18 hr by serial plate dilution method; format: functional
# Klebsiella pneumoniae [6] = format: functional
# Description: Antibacterial activity against Klebsiella pneumoniae assessed as growth inhibition at 1.56 to 25 ug/ml after 3 to 4 days by agar well diffusion method
# [7] = tested on: Trichophyton mentagrophytes; test: Antifungal activity against Trichophyton mentagrophytes assessed as growth inhibition after 3 to 4 days by serial plate dilution method; format: functional
# [8] = tested on: Mycolicibacterium fortuitum; test: Antitubercular activity against Mycobacterium fortuitum ATCC 19542 assessed as growth inhibition at 0.3125 to 5 ug/mL after 7 days by resazurin reduction test; format: functional; conditions: ATCC 19542, 168 h
# Streptococcus pyogenes [9] = format: functional
# Description: Antibacterial activity against Streptococcus pyogenes assessed as growth inhibition at 1.56 to 25 ug/ml after 3 to 4 days by agar well diffusion method
# Aspergillus fumigatus [10] = test: Antifungal activity against Aspergillus fumigatus NCIM 902 assessed as growth inhibition at […] to […] ug/ml after 3 to 4 days by agar well diffusion method; format: functional
# Talaromyces marneffei [11] = test: Antifungal activity against Talaromyces marneffei assessed as growth inhibition at […] to […] ug/ml after 3 to 4 days by agar well diffusion method; format: functional
# Candida albicans [12] = test: Antifungal activity against Candida albicans assessed as growth inhibition at […] to […] ug/ml after 3 to 4 days by agar well diffusion method; format: functional
# Candida albicans [13] = test: Antifungal activity against Candida albicans assessed as growth inhibition after 3 to 4 days by serial plate dilution method; format: functional
# Streptococcus pyogenes [14] = test: Antibacterial activity against Streptococcus pyogenes assessed as growth inhibition after 16 to 18 hr by serial plate dilution method; format: functional
# Aspergillus flavus [15] = test: Antifungal activity against Aspergillus flavus NCIM 524 assessed as growth inhibition at […] to […] ug/ml after 3 to 4 days by agar well diffusion method; format: functional
# [16] = tested on: Mycolicibacterium smegmatis; test: Antitubercular activity against Mycobacterium smegmatis ATCC 19420 assessed as growth inhibition at 1 to 100 ug/mL after 7 days by resazurin reduction test; format: functional; conditions: ATCC 19420, 168 h
# Talaromyces marneffei [17] = test: Antifungal activity against Talaromyces marneffei assessed as growth inhibition after 3 to 4 days by serial plate dilution method; format: functional
# Staphylococcus aureus [18] = format: functional, ATCC 25923
# Description: Antibacterial activity against Staphylococcus aureus ATCC 25923 assessed as growth inhibition at 1.56 to 25 ug/ml after 3 to 4 days by agar well diffusion method
# Pseudomonas aeruginosa [19] = format: functional, ATCC 27853
# Description: Antibacterial activity against Pseudomonas aeruginosa ATCC 27853 assessed as growth inhibition at 1.56 to 25 ug/ml after 3 to 4 days by agar well diffusion method
# Aspergillus flavus [20] = test: Antifungal activity against Aspergillus flavus NCIM 524 assessed as growth inhibition after 3 to 4 days by serial plate dilution method; format: functional
# Aspergillus fumigatus [21] = test: Antifungal activity against Aspergillus fumigatus NCIM 902 assessed as growth inhibition after 3 to 4 days by serial plate dilution method; format: functional
# [22] = tested on: Mycobacterium tuberculosis; test: Antitubercular activity against Mycobacterium tuberculosis H37Rv ATCC 27294 assessed as growth inhibition at 1 to 100 ug/mL after 7 days by resazurin reduction test; format: functional
# Klebsiella pneumoniae [23] = test: Antibacterial activity against Klebsiella pneumoniae assessed as growth inhibition after 16 to 18 hr by serial plate dilution method; format: functional
# Escherichia coli [24] = format: functional, ATCC 24922
# Description: Antibacterial activity against Escherichia coli ATCC 24922 assessed as growth inhibition at 1.56 to 25 ug/ml after 3 to 4 days by agar well diffusion method
# Pseudomonas aeruginosa [25] = test: Antibacterial activity against Pseudomonas aeruginosa ATCC 27853 assessed as growth inhibition after 16 to 18 hr by serial plate dilution method; format: functional
# [26] = tested on: Mycobacterium tuberculosis; test: Antitubercular activity against Mycobacterium tuberculosis H37Rv ATCC 27294 assessed as growth inhibition at 0.3125 to 5 ug/mL after 7 days by resazurin reduction test; format: functional; conditions: H37Rv ATCC 27294, 168 h
smiles,measurement,setting,value
Cc1[nH]c2ccc(OC(F)(F)F)cc2c1CNC(=O)CCc1c[nH]c2ccc(Cl)cc12,diameter of the inhibition zone (DIZ),[1],<10 mm
same,MIC,[2],10 mg/L
same,MIC,Escherichia coli [3],12.5 mg/L
same,MIC,[4],10 mg/L
same,MIC,Staphylococcus aureus [5],6.25 mg/L
same,diameter of the inhibition zone (DIZ),Klebsiella pneumoniae [6],<10 mm
same,MIC,[7],25 mg/L
same,MIC,[8],10 mg/L
same,diameter of the inhibition zone (DIZ),Streptococcus pyogenes [9],16 mm
same,diameter of the inhibition zone (DIZ),Aspergillus fumigatus [10],<10 mm
same,diameter of the inhibition zone (DIZ),Talaromyces marneffei [11],16 mm
same,diameter of the inhibition zone (DIZ),Candida albicans [12],<10 mm
same,MIC,Candida albicans [13],25 mg/L
same,MIC,Streptococcus pyogenes [14],6.25 mg/L
same,diameter of the inhibition zone (DIZ),Aspergillus flavus [15],16 mm
same,MIC,[16],10 mg/L
same,MIC,Talaromyces marneffei [17],6.25 mg/L
same,diameter of the inhibition zone (DIZ),Staphylococcus aureus [18],16 mm
same,diameter of the inhibition zone (DIZ),Pseudomonas aeruginosa [19],16 mm
same,MIC,Aspergillus flavus [20],6.25 mg/L
same,MIC,Aspergillus fumigatus [21],25 mg/L
same,growth inhibition (GI),[22],95%
same,MIC,"[22]; Mycobacterium tuberculosis, H37Rv ATCC 27294, 168 h",1 mg/L
same,MIC,Klebsiella pneumoniae [23],25 mg/L
same,diameter of the inhibition zone (DIZ),Escherichia coli [24],11 mm
same,MIC,Pseudomonas aeruginosa [25],6.25 mg/L
same,MIC,[26],0.625 mg/L

# From ChEMBL document CHEMBL3044921, “Synthesis, characterization, and SAR studies of new (1H-indol-3-yl)alkyl-3-(1H-indol-3-yl)propanamide derivatives as possible antimicrobial and antitubercular agents” (2013)
